Experimental data reported in US20190022088A1 (RedHill Biopharma Ltd., priority 2017, published 2019).

Columns and labels:
trypsin-2 [1] = target: T1, trypsin-2 (Homo sapiens, UniProt P07478); test: Drug-binding kinetic studies
Protocol: (§1) Samples of the selected proteases were prepared and characterized biochemically with respect to inhibitory constant (Ki) of inhibition by WX-UK1-1 and affinity (Kd) of the interaction.

Human Trypsin-3 = target: T2, Human Trypsin-3 (Homo sapiens, UniProt P35030); test: Ki of WX-UK1, chromogenic substrate cleavage; assay type: biochemical; conditions: 37° C., 0.5% BSA, pH=7.4, read-out: Ki (μM) Mean ± SD (n)
T2 sequence (P35030 81-304 limits assumed): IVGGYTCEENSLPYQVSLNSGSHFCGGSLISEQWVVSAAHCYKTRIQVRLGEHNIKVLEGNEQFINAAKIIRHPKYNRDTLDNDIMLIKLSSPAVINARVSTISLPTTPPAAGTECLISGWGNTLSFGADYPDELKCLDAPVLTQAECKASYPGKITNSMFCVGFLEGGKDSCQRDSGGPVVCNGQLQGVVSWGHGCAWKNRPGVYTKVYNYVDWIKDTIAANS

implanted tumors = conditions: parenterally administered; cited from earlier work
trypsin-2 [2] = target: T1, trypsin-2; test: Ki of WX-UK1, chromogenic substrate cleavage; assay type: biochemical; conditions: 37° C., 0.5% BSA, pH=7.4, read-out: Ki (μM) Mean ± SD (n)
plasmin = plasmin (Homo sapiens, UniProt P00747); conditions: previously shown; cited from earlier work
plasmin, sequence (P00747 581-810 limits assumed, species assumed): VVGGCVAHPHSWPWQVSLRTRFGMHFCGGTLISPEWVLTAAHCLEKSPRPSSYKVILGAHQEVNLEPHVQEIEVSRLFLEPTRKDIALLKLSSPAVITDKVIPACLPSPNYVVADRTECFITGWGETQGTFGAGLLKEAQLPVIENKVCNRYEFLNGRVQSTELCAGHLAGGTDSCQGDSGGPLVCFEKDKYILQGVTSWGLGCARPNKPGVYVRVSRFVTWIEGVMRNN
plasmin, sequence (P00747 97-580 partner limits assumed, species assumed): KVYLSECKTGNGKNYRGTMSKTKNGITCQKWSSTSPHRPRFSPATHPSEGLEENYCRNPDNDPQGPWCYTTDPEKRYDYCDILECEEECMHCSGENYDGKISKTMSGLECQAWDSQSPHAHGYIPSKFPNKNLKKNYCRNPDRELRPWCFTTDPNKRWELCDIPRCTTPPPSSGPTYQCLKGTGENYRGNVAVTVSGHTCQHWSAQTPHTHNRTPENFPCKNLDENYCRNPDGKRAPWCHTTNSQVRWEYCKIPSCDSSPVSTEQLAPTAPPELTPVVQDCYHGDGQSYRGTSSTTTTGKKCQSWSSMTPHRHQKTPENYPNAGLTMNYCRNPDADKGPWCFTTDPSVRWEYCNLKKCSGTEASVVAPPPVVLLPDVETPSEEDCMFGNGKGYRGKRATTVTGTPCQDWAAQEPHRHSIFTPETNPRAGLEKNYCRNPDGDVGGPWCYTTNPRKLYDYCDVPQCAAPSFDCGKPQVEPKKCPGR

Solubility = assay type: physicochemical
Human Trypsin-1 = Human Trypsin-1 (Homo sapiens, UniProt P07477); test: Ki of WX-UK1, chromogenic substrate cleavage; assay type: biochemical; conditions: 37° C., 0.5% BSA, pH=7.4, read-out: Ki (μM) Mean ± SD (n)
Human Tryptase- = test: Ki of WX-UK1, chromogenic substrate cleavage; assay type: biochemical; conditions: Human Tryptase- (isoform character is an image); 37° C., 0.5% BSA, pH=7.4; read-out: Ki (μM) Mean ± SD (n)
Protocol: as §1
Substrate concentrations were kept high in order to stay around 10% turnover per run.

[3] = target: urokinase type plasminogen activator (uPA) (Homo sapiens, UniProt P00749); conditions: previously shown; cited from earlier work

T1 sequence (P07478 24-247): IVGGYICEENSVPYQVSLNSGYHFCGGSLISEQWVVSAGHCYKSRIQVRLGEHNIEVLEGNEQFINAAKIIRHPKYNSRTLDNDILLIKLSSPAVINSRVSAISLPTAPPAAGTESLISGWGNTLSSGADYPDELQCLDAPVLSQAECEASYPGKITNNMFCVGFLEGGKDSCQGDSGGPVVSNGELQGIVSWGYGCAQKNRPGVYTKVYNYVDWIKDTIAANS

rate of association with trypsin-2 compared with uPA (trypsin-2 [1]): faster | rate of dissociation from trypsin-2 compared with uPA (trypsin-2 [1]): slower | Ki (Human Trypsin-3): ~0.019 µM | Ki (trypsin-2 [2]): ~0.075 µM | solubility in water (Solubility): poor solubility | Ki (Human Trypsin-1): ~0.19 µM | Ki (Human Tryptase-): 11 ± 2 µM
SMILES: CCOC(=O)N1CCN(C(=O)C(Cc2cccc(C(=N)N)c2)NS(=O)(=O)c2c(C(C)C)cc(C(C)C)cc2C(C)C)CC1 (stereo not drawn) [WX-UK1, N-α-(2,4,6-triisopropylphenylsulfonyl)-3-amidino-(L)-phenylalanine 4-ethoxycarbonylpiperazide]
growth rate of implanted tumors (implanted tumors): reduce the growth rate of implanted tumors | invasion into nearby lymph nodes and spreading to distant target organs of metastasis (implanted tumors): inhibit their invasion into nearby lymph nodes and their spreading to distant target organs of metastasis | Ki (plasmin): 1460 to 2400 nM | Ki [3]: 650 to 900 nM
